Earlier results, collected in patent US20050215521A1, “Modafinil combination therapy for improving sleep quality” (priority 2003, published 2005).
Structures can show the parent of a compound that is named as a salt.

Legend:
mice = details: reference agents, scores below 40 of 60 denote behavioral depression
GABA uptake system = details: at concentrations of 5×10^4 M
[1] = target: GABA:2-oxo-glutarate aminotransferase (Homo sapiens, UniProt P80404); details: at concentrations of 10^−3 M
[2] = system: L-glutamate 1-carboxylase; details: at concentrations of 10^−3 M
[3] = oral
[4] = in vivo

GABA:2-oxo-glutarate aminotransferase, sequence (P80404 29-500): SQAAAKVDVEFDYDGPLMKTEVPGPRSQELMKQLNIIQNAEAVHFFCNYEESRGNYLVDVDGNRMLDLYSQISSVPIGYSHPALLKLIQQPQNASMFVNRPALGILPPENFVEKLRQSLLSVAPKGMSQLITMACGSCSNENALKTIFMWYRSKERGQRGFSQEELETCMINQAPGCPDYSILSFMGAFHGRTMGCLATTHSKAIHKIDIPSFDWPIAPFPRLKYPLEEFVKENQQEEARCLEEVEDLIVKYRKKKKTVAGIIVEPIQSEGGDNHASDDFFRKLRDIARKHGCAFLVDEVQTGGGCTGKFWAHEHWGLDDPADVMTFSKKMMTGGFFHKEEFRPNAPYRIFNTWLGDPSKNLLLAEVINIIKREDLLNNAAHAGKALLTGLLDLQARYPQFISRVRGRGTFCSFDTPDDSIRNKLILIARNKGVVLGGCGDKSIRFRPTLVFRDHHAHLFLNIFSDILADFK

In the case of `CCC1(c2ccccc2)CCC(=O)NC1=O` (stereo not shown) [glutethimide], the ED100 (mice) is given as 300 mg/kg.
For `COC(=O)[C@H]1[C@H]2C[C@@H]3c4[nH]c5cc(OC)ccc5c4CCN3C[C@H]2C[C@@H](OC(=O)c2cc(OC)c(OC)c(OC)c2)[C@@H]1OC` [reserpine], the ED100 (mice) is given as 50 mg/kg.
In the case of `CN1C(=O)CN=C(c2ccccc2)c2cc(Cl)ccc21` [diazepam, 7-chloro-1,3-dihydro-1-methyl-5-phenyl-2H-1,4-benzodiazepin-2-one], the ED100 (mice) is given as 50 mg/kg.
For `O=C(CCCN1CCC(O)(c2ccc(Cl)cc2)CC1)c1ccc(F)cc1` [haloperidol], the ED100 (mice) is given as 10 mg/kg.
For `Oc1noc2c1CCNC2` [gaboxadol, 4,5,6,7-tetrahydroisoxazolo[5,4-c]pyridin-3-ol], the “interaction with the GABA uptake system” value (GABA uptake system) is listed as “did not interact”, the “interaction with GABA:2-oxo-glutarate aminotransferase” value [1] is listed as “did not interact” and the “interaction with L-glutamate 1-carboxylase” value [2] is listed as “did not interact”.
In the case of `NC(=O)C[S+]([O-])C(c1ccccc1)c1ccccc1` (stereo not shown) [Modafinil, 2-[(Diphenylmethyl)sulfinyl]-N-acetamide], the solubility in acetone (acetone) is given as “sparingly or slightly soluble”, the solubility in cyclohexane (cyclohexane) is given as “insoluble” and the solubility in methanol is given as “sparingly or slightly soluble”. For the same molecule, the solubility in water was “insoluble”.
For `CCCC(C)C1(CC)C(=O)NC(=O)NC1=O` (stereo not shown) [pentobarbital], the ED100 (mice) is listed as 100 mg/kg.
In the case of `CCCC(C)(COC(N)=O)COC(N)=O` [meprobamate], the ED100 (mice) is listed as 300 mg/kg.
In the case of `Cc1ccc(-c2nc3ccc(C)cn3c2CC(=O)N(C)C)cc1` [zolpidem, N,N,6-trimethyl-2-(4-methylphenyl)-imidazo[1,2-s]pyridine-3-acetamide], the “elimination half-life (mean)” value [3] is listed as 2.4 h and the duration of action ([3]; hypnotic action) is listed as “up to 6 hours”.
For `Cc1ccc(-c2nc3ccc(C)cn3c2CC(=O)N(C)C)cc1` [zolpidem tartrate], the solubility in methanol is listed as “sparingly soluble”, the “solubility in methylene chloride” value (methylene chloride) is listed as “practically insoluble” and the solubility in water is listed as “slightly soluble”.
In the case of zopiclone, the “binding to plasma proteins” value (plasma proteins) is given as “not highly bound” and the “absorption from the stomach” value [4] is given as “well absorbed”.
For `CP(=O)(O)CCCN` [SKF 97541, 3-aminopropyl(methyl)phosphinic acid], the “solubility in dilute aqueous base” value (dilute aqueous base) is listed as “readily soluble” and the solubility in water is listed as “readily soluble”.
